Laboratory results from patent publication US7576071B2, “Antithrombotic compound” (sanofi-aventis, priority 2004, dated 2009).

Tests used:
[1] = test system: human platelets (platelet rich plasma), ADP-induced aggregation; experiment: In vitro test for inhibition of human platelet aggregation induced by ADP; assay type: cell-based; conditions: 5 μM ADP; human PRP; mean of n experiments; entries marked b measured with a Chronolog aggregometer, others with micro plate reader; read-out: Inhibition of ADP-induced (5 μM) human platelet aggregation (IC50), mean
Description: I.a. In vitro Test for Inhibition of Human Platelet Aggregation Induced by ADP
Addition of adenosine diphosphate (ADP) to human platelet rich plasma (PRP) in vitro induces platelet aggregation. This aggregation can be assessed by measuring the optical density (OD) of the PRP. The in vitro test described here was used to determine the inhibitory activity of a test compound on the ADP-induced aggregation of human platelets. A micro plate reader is used to measure the activity of several compounds simultaneously.
An alternative vehicle is 0.9% NaCl in MQ H2O. The compound solution (either in MQ H2O or 0.9% NaCl in MQ H2O) is further diluted in 0.9% NaCl in MQ H2O.
Free-flowing blood (at least 100 mL) is taken from a healthy volunteer and collected in 0.1 volume 3.8% sodium citrate. 2H2O in distilled H2O (w/v). The final concentration is 0.38% sodium citrate.
The citrated blood is centrifuged at 1,600 N/kg (160 g) at RT. After 15 min, centrifugation is discontinued with the brake turned off and the supernatant (=PRP) is collected. • 2. ADP (Kordia/Chrono-par # 384). Before use, a solution of 50 μM in 0.9% NaCl is prepared. Equipment • 1. Sysmex blood cell counter model KX-21. • 2. Labsystems iEMS reader MF with a 620 nm filter, an orbital shaker set at 1,000 rpm and a constant temperature of 37° C. Absorption is measured with the Labsystems iEMS program. • 3. Blood collection system 600 mL with needle, art P4203 (NPBI). • 4. 96 wells flat bottom micro plates (Greiner Labortechnik). Procedure
The platelets in the supernatant (PRP) are counted using a Sysmex blood cell counter and the supernatant is diluted with PPP to obtain a PRP containing 400,000±50,000 plt/μL. PRP should stabilize at RT for at least 20 min but not longer than 3 h.
150 μL PRP is pipetted into a well of the micro plate. 30 μL test compound in a range of concentrations (7 concentrations per compound) or vehicle is added and the micro plate is placed in the Labsystems iEMS reader MF at 37° C. The optical density (OD620) is then measured at 620 nm. After shaking for 2 min in the reader (1,000 rpm), the OD is measured for the second time. This is to verify the stability of the platelets (absence of spontaneous platelet aggregation). Then, 20 μL of 50 μM ADP solution is added and the OD is kinetically measured every min for 14 min at 620 nm (FIG. 1). Between two measurements, the plate is shaking for 40 seconds at 1,000 rpm. Each test compound is investigated in at least 2 experiments using PRP from different volunteers.
The mean OD at each compound concentration (including vehicle) is calculated at t=0 min and t=10 min. The percentage inhibition at each concentration is calculated using the formula: […]
The IC50 of the test compound is the concentration of the test compound at which the ADP-induced platelet aggregation is reduced by 50%. For this, the percentage inhibition values are plotted against compound concentration. Then, IC50, nH (Hill slope) and efficacy of the test compound is calculated using Graphpad Prism 3.0 (with variable slope).
Reference: Salmon, D. M. (1996) Thrombosis Research 84, 213-216.

Bovine factor Xa = experiment: Determination of anti-factor Xa activity in buffer (microtiter plate method, AT-III mediated); assay type: biochemical; conditions: Kabi buffer, human AT-III
Description: II. Determination of Anti-Factor Xa Activity in Buffer
(Microtiter Plate Method)
Anticoagulants can inhibit Xa directly or, like heparin, by potentiating the inhibitory activity of AT-III. Anti-Xa activity can be assessed by determination of the rate of hydrolysis of the chromogenic substrate S-2222 in the presence of AT-III. This assay is used to determine anti-Xa activity of heparinoid preparations in Kabi buffer.
Test medium: Kabi buffer.
Ref. compound: International standard heparin (11.4 anti-Xa U/mg).
Composition of the buffer: NaCl 10.17 g (174 mmol); edetate disodium dihydrate 3.26 g (9.6 mmol); tromethamine (Tris) 6.11 g (50.4 mmol); made up to 1 L with ultrapure H2O *. The pH of the solution is adjusted to 7.4 with hydrochloric acid (0.10 mol/L)
Bovine factor Xa (Kabi Diagnostica, Stockholm, Sweden) is dissolved in Kabi buffer to give a solution containing 1.5 U/mL (0.75 nKat/mL). • 3. S-2222 solution
S-2222 (Kabi Diagnostica) is dissolved in ultrapure H2O to give a solution containing 0.375 mg/mL (0.5 mmol/L). • 4. AT-III solution
Human AT-III (Kabi Diagnostica) is dissolved in Kabi buffer to give a solution containing 0.25 U/mL. A fresh solution has to be prepared daily. • 5. Standard solution of the calibration sample
Standard heparin is dissolved in Kabi buffer to give a standard solution containing approx. 0.25 anti-Xa U/mL.
Each preparation is dissolved in ultrapure H2O and diluted with Kabi buffer to the required concentrations in the range of 0.02-0.2 anti-Xa U/mL
Each test sample (0.05 mL) is pipetted into a well of a microtiter plate at RT. AT-III solution (0.05 mL) is added to each sample and the plate is shaken using a Vari-shaker.
An aliquot of Xa solution (0.05 mL) is pipetted into each well 10 min following addition of AT-III solution and the plate is shaken again. Exactly 2 min following addition of Xa solution, 0.1 mL S-2222 solution is pipetted into each well and the plate is shaken again. For all additions a 12-channel pipette is used.
The remaining amount of Xa catalyses the hydrolysis of S-2222, the rate of which is measured photometrically following incubation periods of 2 and 22 min respectively at RT. The absorbance of each sample is measured at 405 nm using a Reader Microelisa, model 310C (Organon Teknika, Oss, The Netherlands) and the increase in absorbance (ΔOD) is calculated. Each test sample is determined in duplicate. With every 10 samples, a blank (0.05 mL Kabi buffer) is included.
From an aliquot of the standard solution of the calibration sample a range of dilutions is made (dilution factor 1,3 for heparin samples). The resulting standard samples (approx. 15 samples) should contain between 0.01-0.25 anti-Xa U/mL. […]
For each sample the mean anti-Xa activity in U/mL is determined using the calibration curve. […]

IC50 [1]: 630 nM
Substance: Methyl O-2,3-di-O-methyl-4-O-<<12-N-<N-(3-keto-benzenesulfonyl)-4-O-{4-(4-piperidinyl)-butyl}-L-tyrosine>-12-aza-3,6,9-trioxa-dodecyl>>-6-O-sulfo-alpha-D-glucopyranosyl-(1->4)-O-2,3-di-O-methyl-beta-D-glucopyranuronosyl-(1->4)-O-2,3,6-tri-O-sulfo-alpha-D-glucopyranosyl-(1->4)-O-2,3-di-O-methyl-alpha-L-idopyranuronosyl-(1>4)-3-O-methyl-2,6-di-O-sulfo-alpha-D-glucopyranoside octakis sodium salt [XIV]
Anti-Xa activity (Bovine factor Xa; substrate S-2222, calibrated against standard heparin): 735 ± 107 U/mg | Anti-Xa activity (Bovine factor Xa; substrate S-2222, per nmol (from U/mg and Mw)): 1.68 U/nmol
